Measurements taken from paper PMC3961306, “Comparison of the Cancer Gene Targeting and Biochemical Selectivities of All Targeted Kinase Inhibitors Approved for Clinical Use” (PLoS ONE, 2014).
“And” between values parts separate entries of the source, which are not always exact repeats. Identical values can stand only once. Like-named read-outs stand apart in the source and are kept apart here.

Tested on: forty-four human cancer cell lines
Experiment: Cell proliferation assay (ATPlite, 72 hours) in the 44 cell line Oncolines panel
Type: cell-based

- IC50 (Homo sapiens, 769-P, cell line 769-P, read-out: cell panel IC50, 769-P): 113 nM
- IC50 (Homo sapiens, 786-0, cell line 786-0, read-out: cell panel IC50, 786-0): 125 nM
- IC50 (Homo sapiens, A 172, read-out: cell panel IC50, A-172, cell line A-172): 93 nM
- IC50 (Homo sapiens, A498, read-out: cell panel IC50, A-498, cell line A-498): 96 nM
- IC50 (Homo sapiens, A549, read-out: cell panel IC50, A-549, cell line A-549): 82 nM
- IC50 (Homo sapiens, A-375, cell line A375, read-out: cell panel IC50, A375): 38 nM
- IC50 (Homo sapiens, A-427, read-out: cell panel IC50, A-427, cell line A-427): 27 nM
- IC50 (Homo sapiens, ACHN, cell line ACHN, read-out: cell panel IC50, ACHN): 61 nM
- IC50 (Homo sapiens, AN3-CA, cell line AN3 CA, read-out: cell panel IC50, AN3 CA): 75 nM
- IC50 (Homo sapiens, AU565, read-out: cell panel IC50, AU-565, cell line AU-565): 73 nM
- IC50 (Homo sapiens, BT-20, cell line BT-20, read-out: cell panel IC50, BT-20): 190 nM
- IC50 (Homo sapiens, BT-549, read-out: cell panel IC50, BT-549, cell line BT-549): 76 nM
- IC50 (Homo sapiens, BXPC-3, cell line BxPC-3, read-out: cell panel IC50, BxPC-3): 172 nM
- IC50 (Homo sapiens, C-33-A, cell line C-33 A, read-out: cell panel IC50, C-33 A): 26 nM
- IC50 (Homo sapiens, CAL-27, cell line CAL 27, read-out: cell panel IC50, CAL 27): 21 nM
- IC50 (Homo sapiens, CCRF-CEM, cell line CCRF-CEM, read-out: cell panel IC50, CCRF-CEM): 17 nM
- IC50 (Homo sapiens, DLD-1, cell line DLD-1, read-out: cell panel IC50, DLD-1): 437 nM
- IC50 (Homo sapiens, FaDu, cell line FaDu, read-out: cell panel IC50, FaDu): 45 nM
- IC50 (Homo sapiens, HCT-15, cell line HCT-15, read-out: cell panel IC50, HCT-15): 237 nM
- IC50 (Homo sapiens, HCT-116, read-out: cell panel IC50, HCT-116, cell line HCT-116): 44 nM
- IC50 (Homo sapiens, Hs-578T, cell line Hs 578T, read-out: cell panel IC50, Hs 578T): 80 nM
- IC50 (Homo sapiens, Jurkat E6.1, cell line Jurkat E6.1, read-out: cell panel IC50, Jurkat E6.1): 26 nM
- IC50 (Homo sapiens, K562, read-out: cell panel IC50, K-562, cell line K-562): 55 nM
- IC50 (Homo sapiens, LoVo, cell line LoVo, read-out: cell panel IC50, LoVo): 49 nM
- IC50 (Homo sapiens, MG-63, cell line MG-63, read-out: cell panel IC50, MG-63): 56 nM
- IC50 (Homo sapiens, MOLT-4, cell line MOLT-4, read-out: cell panel IC50, MOLT-4): 12 nM
- IC50 (Homo sapiens, MeWo, cell line MeWo, read-out: cell panel IC50, MeWo): 204 nM
- IC50 (Homo sapiens, NCI-H82, cell line NCI-H82, read-out: cell panel IC50, NCI-H82): 52 nM
- IC50 (Homo sapiens, NCI-H460, cell line NCI-H460, read-out: cell panel IC50, NCI-H460): 21 nM
- IC50 (Homo sapiens, OVCAR-3, cell line OVCAR-3, read-out: cell panel IC50, OVCAR-3): 259 nM
- IC50 (Homo sapiens, RPMI-7951, cell line RPMI-7951, read-out: cell panel IC50, RPMI-7951): 28 nM
- IC50 (Homo sapiens, SK-N-AS, cell line SK-N-AS, read-out: cell panel IC50, SK-N-AS): 72 nM
- IC50 (Homo sapiens, SW48, cell line SW48, read-out: cell panel IC50, SW48): 208 nM
- IC50 (Homo sapiens, SW480, cell line SW480, read-out: cell panel IC50, SW480): 353 nM
- IC50 (Homo sapiens, SW-620, cell line SW620, read-out: cell panel IC50, SW620): 296 nM
- IC50 (Homo sapiens, U2OS, cell line U-2 OS, read-out: cell panel IC50, U-2 OS): 109 nM
- IC50 (Homo sapiens, U-87 MG, 72 h, U-87 MG cell line, ATPlite, 72 hours, read-out: IC50 in cell proliferation assay (table S5 cellpanel data)): 111 nM
- IC50 (Homo sapiens, cell line J82, read-out: cell panel IC50, J82): 151 nM
- IC50 (Homo sapiens, cell line PA-1, read-out: cell panel IC50, PA-1): 4 nM
- IC50 (Homo sapiens, cell line SJCRH30, read-out: cell panel IC50, SJCRH30): 71 nM
- IC50 (Homo sapiens, cell line SR, read-out: cell panel IC50, SR): 6 nM
- IC50 (U-87 MG cell line, ATPlite, 72 hours, read-out: IC50 in cell proliferation assay (table S5 cellpanel data)): 89 nM
- IC50 (cell line 769-P, read-out: cell panel IC50, 769-P): 142 nM and 144 nM
- IC50 (cell line 786-0, read-out: cell panel IC50, 786-0): 103 nM
- IC50 (cell line A375, read-out: cell panel IC50, A375): 35 nM and 51 nM
- IC50 (cell line ACHN, read-out: cell panel IC50, ACHN): 84 nM
- IC50 (cell line AN3 CA, read-out: cell panel IC50, AN3 CA): 81 nM and 94 nM
- IC50 (cell line BT-20, read-out: cell panel IC50, BT-20): 207 nM and 157 nM
- IC50 (cell line BxPC-3, read-out: cell panel IC50, BxPC-3): 227 nM and 286 nM
- IC50 (cell line CAL 27, read-out: cell panel IC50, CAL 27): 20 nM
- IC50 (cell line CCRF-CEM, read-out: cell panel IC50, CCRF-CEM): 20 nM
- IC50 (cell line DLD-1, read-out: cell panel IC50, DLD-1): 429 nM and 346 nM
- IC50 (cell line FaDu, read-out: cell panel IC50, FaDu): 47 nM and 57 nM
- IC50 (cell line HCT-15, read-out: cell panel IC50, HCT-15): 254 nM and 276 nM
- IC50 (cell line Hs 578T, read-out: cell panel IC50, Hs 578T): 89 nM and 58 nM
- IC50 (cell line J82, read-out: cell panel IC50, J82): 144 nM and 135 nM
- IC50 (cell line Jurkat E6.1, read-out: cell panel IC50, Jurkat E6.1): 31 nM and 24 nM
- IC50 (cell line LoVo, read-out: cell panel IC50, LoVo): 59 nM
- IC50 (cell line MG-63, read-out: cell panel IC50, MG-63): 67 nM and 87 nM
- IC50 (cell line MOLT-4, read-out: cell panel IC50, MOLT-4): 11 nM and 13 nM
- IC50 (cell line MeWo, read-out: cell panel IC50, MeWo): 226 nM and 264 nM
- IC50 (cell line NCI-H82, read-out: cell panel IC50, NCI-H82): 65 nM
- IC50 (cell line NCI-H460, read-out: cell panel IC50, NCI-H460): 25 nM
- IC50 (cell line OVCAR-3, read-out: cell panel IC50, OVCAR-3): 314 nM and 276 nM
- IC50 (cell line PA-1, read-out: cell panel IC50, PA-1): 5.26 nM and 6.46 nM
- IC50 (cell line RPMI-7951, read-out: cell panel IC50, RPMI-7951): 33 nM and 32 nM
- IC50 (cell line SJCRH30, read-out: cell panel IC50, SJCRH30): 62 nM and 43 nM
- IC50 (cell line SK-N-AS, read-out: cell panel IC50, SK-N-AS): 100 nM
- IC50 (cell line SR, read-out: cell panel IC50, SR): 6.54 nM and 10 nM
- IC50 (cell line SW48, read-out: cell panel IC50, SW48): 112 nM and 121 nM
- IC50 (cell line SW480, read-out: cell panel IC50, SW480): 315 nM and 369 nM
- IC50 (cell line SW620, read-out: cell panel IC50, SW620): 354 nM and 446 nM
- IC50 (cell line U-2 OS, read-out: cell panel IC50, U-2 OS): 115 nM and 153 nM
- IC50 (read-out: cell panel IC50, A-172, cell line A-172): 95 nM
- IC50 (read-out: cell panel IC50, A-427, cell line A-427): 31 nM and 40 nM
- IC50 (read-out: cell panel IC50, A-498, cell line A-498): 92 nM and 91 nM
- IC50 (read-out: cell panel IC50, A-549, cell line A-549): 68 nM
- IC50 (read-out: cell panel IC50, AU-565, cell line AU-565): 94 nM and 79 nM
- IC50 (read-out: cell panel IC50, BT-549, cell line BT-549): 90 nM
- IC50 (read-out: cell panel IC50, HCT-116, cell line HCT-116): 62 nM and 64 nM
- IC50 (read-out: cell panel IC50, K-562, cell line K-562): 57 nM
Structure (SMILES): COc1cccc2c1C(=O)c1c(O)c3c(c(O)c1C2=O)C[C@@](O)(C(=O)CO)C[C@@H]3O[C@H]1C[C@H](N)[C@H](O)[C@H](C)O1 [doxorubicin]
